The target of one assay is T1, human SGLT2 (Homo sapiens, UniProt P31639).
T1 construct: expressed in transfected cells; host or cells: CHOK1 (Chinese hamster ovary) cells, kept under Geneticin selection
T1 sequence (P31639 1-672): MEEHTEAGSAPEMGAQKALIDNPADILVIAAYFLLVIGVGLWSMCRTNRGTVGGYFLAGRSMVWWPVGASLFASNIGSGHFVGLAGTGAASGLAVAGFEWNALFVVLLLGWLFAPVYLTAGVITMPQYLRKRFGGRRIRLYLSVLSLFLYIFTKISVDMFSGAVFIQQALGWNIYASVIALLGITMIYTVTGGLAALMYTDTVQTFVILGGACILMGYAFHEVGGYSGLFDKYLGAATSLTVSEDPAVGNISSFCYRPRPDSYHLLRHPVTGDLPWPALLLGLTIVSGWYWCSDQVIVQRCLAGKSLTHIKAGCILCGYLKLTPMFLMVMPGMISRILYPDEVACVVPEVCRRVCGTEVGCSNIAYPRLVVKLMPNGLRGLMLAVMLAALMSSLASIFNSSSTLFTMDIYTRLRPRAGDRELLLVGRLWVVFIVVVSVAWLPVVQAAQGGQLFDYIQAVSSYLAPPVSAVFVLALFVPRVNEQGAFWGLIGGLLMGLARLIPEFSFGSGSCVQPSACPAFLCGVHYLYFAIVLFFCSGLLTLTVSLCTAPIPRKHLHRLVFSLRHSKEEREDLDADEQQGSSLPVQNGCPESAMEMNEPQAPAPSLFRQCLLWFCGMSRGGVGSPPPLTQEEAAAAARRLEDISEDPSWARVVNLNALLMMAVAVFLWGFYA
The assay can be described thus: Assay for SGLT2 inhibition (14C-AMG uptake in CHOK1 cells expressing human SGLT2). The following applies: CHOK1 cells expressing human SGLT2; 14C-AMG uptake, 0.5 mM, 2 hours at 37° C.; read-out: IC50. Type of assay: cell-based. As to the method:
1. Assay for SGLT2 Inhibition
Compounds described in the above examples were used for the SGLT2 inhibition assay.
CHOK1 cells expressing human SGLT2 were seeded in 24-well plates at a density of 400,000 cells/well in F-12 nutrient mixture (Ham's F-12) containing 10% fetal bovine serum, 400 μg/ml Geneticin, 50 units/ml sodium penicillin G (Gibco-BRL) and 50 μg/ml streptomycin sulfate. After 2 days of culture at 37° C. in a humidified atmosphere containing 5% CO2, cells were washed once with the assay buffer (137 mM NaCl, 5 mM KCl, 1 mM CaCl2, 1 mM MgCl2, 50 mM Hepes, and 20 mM Tris, pH 7.4) and incubated with 250 μl of the buffer containing test compounds for 10 min at 37° C. Test compounds were dissolved in DMSO. The final concentration of DMSO was 0.5%. The transport reaction was initiated by addition of 50 μl [^14C]-methyl-α-D-glucopyranoside (^14C-AMG) solution (final concentration, 0.5 mM). After incubation for 2 hours at 37° C., the uptake was stopped by aspiration of the incubation mixture, the cells were washed three times with ice-cold PBS. Then, cells were solubilized with 0.3 N NaOH and aliquots were taken for determination of radioactivity by a liquid scintillation counter. Nonspecific AMG uptake was defined as that which occurred in the presence of 100 μM of phlorizin, a specific inhibitor of sodium-dependent glucose cotransporter. Specific uptake was normalized for the protein concentrations measured by the method of Bradford. The 50% inhibitory concentration (IC50) values were calculated from dose-response curves by least square method.

Another assay relates to Sprague-Dawley (SD) rats. Put plainly: Urinary glucose excretion test in rats. The following applies: male SD rats; 30 mg/kg by oral gavage; urine collected for 24 hours; daily amount of glucose excreted in urine per individual. Type of assay: in vivo, rat. As to the method: 2. Urinary Glucose Excretion Test in Rats Test Compounds:
Compounds described in the above examples were used for the Urinary glucose excretion test in rats.
6-week-old male Sprague-Dawley (SD) rats were housed in individual metabolic cages with free access to food and water from 2 days prior to the experiment. On the morning of the experiment, rats were administered vehicle (0.2% carboxymethyl cellulose solution containing 0.2% Tween80) or test compounds (30 mg/kg) by oral gavage at a volume of 10 ml/kg. Then, urine of the rat was collected for 24 hours, and the urine volume was measured. Subsequently, the glucose concentration in urine was quantified using the enzymatic assay kit and the daily amount of glucose excreted in urine per individual was calculated.

The record followed here is patent US7935674B2, “Indole derivatives” (Mitsubishi Tanabe Pharma Corporation, priority 2005, dated 2011).

One may read the IC50 as the midpoint of a concentration-inhibition curve. On to `Cc1ccc(Cc2cn([C@@H]3O[C@H](CO)[C@@H](O)[C@H](O)[C@H]3O)c3cccc(F)c23)cc1` [Example 24, 4-Fluoro-3-(4-methylphenylmethyl)-1-(β-D-glucopyranosyl)-indole], for which the IC50 at human SGLT2 was determined as 6.3 nM.
On the same count and under the same terms, to `Cc1ccc(Cc2cn([C@@H]3O[C@H](CO)[C@@H](O)[C@H](O)[C@H]3O)c3cccc(Cl)c23)cc1` [Example 11, 4-Chloro-3-(4-methylphenylmethyl)-1-(β-D-glucopyranosyl)-indole] belongs 2.4 nM; to `Cc1cccc2c1c(Cc1ccc(-c3cccc(C#N)c3)s1)cn2[C@@H]1O[C@H](CO)[C@@H](O)[C@H](O)[C@H]1O` [Example 45, 3-(5-(3-Cyanophenyl)-thiophen-2-yl-methyl)-4-methyl-1-(β-D-glucopyranosyl)indole], 2.5 nM.
On to `OC[C@H]1O[C@@H](n2cc(Cc3ccc(O)cc3)c3c(Cl)cccc32)[C@H](O)[C@@H](O)[C@@H]1O` [Example 46, 4-Chloro-3-(4-hydroxyphenylmethyl)-1-(β-D-glucopyranosyl)-indole], for which the IC50 at human SGLT2 amounted to 2.4 nM. For the same molecule, the Urinary glucose result in the assay on Sprague-Dawley (SD) rats was “A (A≧2400 mg)”.
On to `OC[C@H]1O[C@@H](n2cc(Cc3ccc(Cl)cc3)c3c(Cl)cccc32)[C@H](O)[C@@H](O)[C@@H]1O` [Example 6, 4-Chloro-3-(4-chlorophenylmethyl)-1-(β-D-glucopyranosyl)-indole], for which, on human SGLT2, the half-inhibitory concentration (IC50) is 9.8 nM. The Urinary glucose result with Sprague-Dawley (SD) rats is on record as “A (A≧2400 mg)”.
Take `Cc1cccc2c1c(Cc1ccc(-c3cccs3)s1)cn2[C@@H]1O[C@H](CO)[C@@H](O)[C@H](O)[C@H]1O` [Example 51, 4-Methyl-3-(5-(2-thienyl)thiophen-2-yl-methyl)-1-(β-D-gluco-pyranosyl)indole]: the IC50 on human SGLT2 is 6.1 nM.
Consider `OC[C@H]1O[C@@H](n2cc(Cc3ccc(Br)s3)c3c(Cl)cccc32)[C@H](O)[C@@H](O)[C@@H]1O` [Example 7, 3-(5-Bromo-2-thienylmethyl)-4-chloro-1-(β-D-glucopyranosyl)-indole], for which, at human SGLT2, the IC50 came to 5 nM. Moreover, the Urinary glucose entry in the assay on Sprague-Dawley (SD) rats is reported as “B (2400 mg>B≧2000 mg)”.
Regarding `OC[C@H]1O[C@@H](n2cc(Cc3ccc(OC(F)F)cc3)c3c(Cl)cccc32)[C@H](O)[C@@H](O)[C@@H]1O` [Example 31, 4-Chloro-3-(4-(difluoromethoxy)phenylmethyl)-1-(β-D-gluco-pyranosyl)indole], on human SGLT2, the IC50 was 2.6 nM. Besides, the Urinary glucose entry with Sprague-Dawley (SD) rats is “A (A≧2400 mg)”.
Take `OC[C@H]1O[C@@H](n2cc(Cc3ccc(OCCF)cc3)c3c(F)cccc32)[C@H](O)[C@@H](O)[C@@H]1O` [Example 12, 4-Fluoro-3-(4-(2-fluoroethyloxy)phenylmethyl)-1-(β-D-gluco-pyranosyl)indole]: the IC50 on human SGLT2 is 4.1 nM.
Turning to `OC[C@H]1O[C@@H](n2cc(Cc3ccc4occc4c3)c3c(Cl)cc(Cl)cc32)[C@H](O)[C@@H](O)[C@@H]1O` [Example 32, 3-(Benzo[b]furan-5-yl-methyl)-4,6-dichloro-1-(β-D-gluco-pyranosyl)indole], at human SGLT2, the IC50 stood at 7.5 nM. Further, in the assay with Sprague-Dawley (SD) rats, the Urinary glucose entry is on record as “B (2400 mg>B≧2000 mg)”.
For the molecule `CSc1ccc(Cc2cn([C@@H]3O[C@H](CO)[C@@H](O)[C@H](O)[C@H]3O)c3cccc(F)c23)cc1` [Example 10, 4-Fluoro-3-(4-(methylthio)phenylmethyl)-1-(β-D-gluco-pyranosyl)indole], on human SGLT2, the IC50 was 2.4 nM.
Regarding `OC[C@H]1O[C@@H](n2cc(Cc3ccc4occc4c3)c3c(Br)cccc32)[C@H](O)[C@@H](O)[C@@H]1O` [Example 43, 3-(Benzo[b]furan-5-yl-methyl)-4-bromo-1-(β-D-glucopyranosyl)-indole], the IC50 on human SGLT2 was 8.4 nM. Moreover, in the assay with Sprague-Dawley (SD) rats, the Urinary glucose result was “A (A≧2400 mg)”.
With `Cc1cccc2c1c(Cc1ccc(I)cc1)cn2[C@@H]1O[C@H](CO)[C@@H](O)[C@H](O)[C@H]1O` [Example 39, 3-(4-Iodophenylmethyl)-4-methyl-1-(β-D-glucopyranosyl)indole], the IC50 on human SGLT2 is 3.6 nM. In addition, the Urinary glucose result in the assay with Sprague-Dawley (SD) rats is “B (2400 mg>B≧2000 mg)”.
On to `Cc1cccc2c1c(Cc1ccc(-c3ccc(F)cc3)s1)cn2[C@@H]1O[C@H](CO)[C@@H](O)[C@H](O)[C@H]1O` [Example 48, 3-(5-(4-Fluorophenyl)thiophen-2-yl-methyl)-4-methyl-1-(β-D-glucopyranosyl)indole], for which the IC50 on human SGLT2 stood at 19 nM.
As to `OC[C@H]1O[C@@H](n2cc(Cc3ccc(OCCF)cc3)c3c(Cl)cccc32)[C@H](O)[C@@H](O)[C@@H]1O` [Example 17, 4-Chloro-3-(4-(2-Fluoroethyloxy)phenylmethyl)-1-(β-D-glucopyranosyl)indole], on human SGLT2, the IC50 amounted to 2.5 nM.
Regarding `CSc1ccc(Cc2cn([C@@H]3O[C@H](CO)[C@@H](O)[C@H](O)[C@H]3O)c3cccc(Cl)c23)cc1` [Example 4, 4-Chloro-3-(4-(methylthio)phenylmethyl)-1-(β-D-gluco-pyranosyl)indole], on human SGLT2, the IC50 is 1.7 nM.
For the molecule `CCc1ccc(Cc2cn([C@@H]3O[C@H](CO)[C@@H](O)[C@H](O)[C@H]3O)c3cccc(C)c23)cc1` [Example 23, 3-(4-Ethylphenylmethyl)-4-methyl-1-(β-D-glucopyranosyl)-indole], the IC50 on human SGLT2 was 1.1 nM.
With `Cc1cccc2c1c(Cc1ccc(-c3ccc(F)nc3)s1)cn2[C@@H]1O[C@H](CO)[C@@H](O)[C@H](O)[C@H]1O` [Example 49, 3-(5-(6-Fluoro-3-pyridyl)thiophen-2-yl-methyl)-4-methyl-1-(β-D-glucopyranosyl)indole], at human SGLT2, the IC50 was determined as 8.8 nM.
In the case of `OC[C@H]1O[C@@H](n2cc(Cc3ccc4c(c3)CCO4)c3c(Cl)cccc32)[C@H](O)[C@@H](O)[C@@H]1O` [Example 21, 4-Chloro-3-(2,3-dihydrobenzo[b]furan-5-yl-methyl)-1-(β-D-glucopyranosyl)indole], the IC50 at human SGLT2 amounted to 1.8 nM.
`COc1ccc(Cc2cn([C@@H]3O[C@H](CO)[C@@H](O)[C@H](O)[C@H]3O)c3cccc(F)c23)cc1` [Example 9, 4-Fluoro-3-(4-methoxyphenylmethyl)-1-(β-D-glucopyranosyl)-indole]: the IC50 on human SGLT2 was 3.3 nM.
Same read-out and setting: the figure for `CCc1ccc(Cc2cn([C@@H]3O[C@H](CO)[C@@H](O)[C@H](O)[C@H]3O)c3cccc(Cl)c23)s1` [Example 16, 4-Chloro-3-(5-ethylthiophen-2-yl-methyl)-1-(β-D-gluco-pyranosyl)indole] is 2.1 nM.
With `Cc1cccc2c1c(Cc1ccc(-c3ccccc3)s1)cn2[C@@H]1O[C@H](CO)[C@@H](O)[C@H](O)[C@H]1O` [Example 50, 4-Methyl-3-(5-phenylthiophen-2-yl-methyl)-1-(β-D-gluco-pyranosyl)indole], the IC50 at human SGLT2 was determined as 11 nM.
On to `CCc1ccc(Cc2cn([C@@H]3O[C@H](CO)[C@@H](O)[C@H](O)[C@H]3O)c3cccc(Cl)c23)cc1` [Example 1, 4-Chloro-3-(4-ethylphenylmethyl)-1-(β-D-glucopyranosyl)-indole], for which the IC50 on human SGLT2 worked out at 2.9 nM.
On to `CCc1ccc(Cc2cn([C@@H]3O[C@H](CO)[C@@H](O)[C@H](O)[C@H]3O)c3cccc(Br)c23)cc1` [Example 22, 4-Bromo-3-(4-ethylphenylmethyl)-1-(β-D-glucopyranosyl)indole], for which the IC50 at human SGLT2 amounted to 3.7 nM.
Take `COc1ccc(Cc2cn([C@@H]3O[C@H](CO)[C@@H](O)[C@H](O)[C@H]3O)c3cccc(Cl)c23)cc1` [Example 5, 4-Chloro-3-(4-methoxyphenylmethyl)-1-(β-D-glucopyranosyl)-indole]: at human SGLT2, the IC50 was 1.8 nM.
